The supplement of paper PMC11061612

What was measured:
Test in all cases: combination Emax (second highest fraction inhibited in the dose matrix, 72 h); higher = more inhibition; extreme values may be limits of the assay
[1] = system: OVMIU (Ovarian Carcinoma)
Method in brief: (§1)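 Cell lines in DMEM/F12 or RPMI with 10% FBS were plated in 1536-well plates, held 24 hours at 37°C, 5% CO2, then given two-drug dose matrices for 72 hours (DMSO typically 0.2%). Viability was read by CellTiter-Glo 2.0 luminescence and scaled as inhibition from 0 (vehicle wells) to 1 (blank wells). Combination Emax is the second-highest inhibition in the matrix; Bliss excess is observed combination effect minus expected EA + EB − EA·EB, EA and EB being single-agent effects.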

[2] = system: LK-2 (Squamous Cell Lung Carcinoma)
Method in brief: as §1

[3] = system: PANC-03-27 (Pancreatic Carcinoma)
Method in brief: as §1

GB-1 (Glioblastoma) = system: GB-1 (Glioblastoma)
Method in brief: as §1

[4] = system: NCI-H446 (Small Cell Lung Carcinoma)
Method in brief: as §1

[5] = system: HEC-1 (Endometrial Carcinoma)
Method in brief: as §1

[6] = system: CAL-62 (Thyroid Gland Carcinoma)
Method in brief: as §1

[7] = system: GP5d (Colorectal Carcinoma)
Method in brief: as §1

[8] = system: LXF-289 (Lung Adenocarcinoma)
Method in brief: as §1

[9] = system: TE-8 (Esophageal Squamous Cell Carcinoma)
Method in brief: as §1

SF268 (Low Grade Glioma) = system: SF268 (Low Grade Glioma)
Method in brief: as §1

[10] = system: OPM-2 (Plasma Cell Myeloma)
Method in brief: as §1

[11] = system: KE-37 (T-Lymphoblastic Leukemia)
Method in brief: as §1

[12] = system: SK-PN-DW (Other Solid Carcinomas)
Method in brief: as §1

[13] = system: MFE-280 (Endometrial Carcinoma)
Method in brief: as §1

[14] = system: VAL (B-Cell Non-Hodgkin's Lymphoma)
Method in brief: as §1

SF539 (Glioblastoma) = system: SF539 (Glioblastoma)
Method in brief: as §1

IST-MES1 (Mesothelioma) = system: IST-MES1 (Mesothelioma)
Method in brief: as §1

LN-229 (Glioblastoma) = system: LN-229 (Glioblastoma)
Method in brief: as §1

[15] = system: L-1236 (Hodgkin's Lymphoma)
Method in brief: as §1

Compound | combination Emax [1] | combination Emax [2] | combination Emax [3] | combination Emax (GB-1 (Glioblastoma)) | combination Emax [4] | combination Emax [5] | combination Emax [6] | combination Emax [7] | combination Emax [8] | combination Emax [9] | combination Emax (SF268 (Low Grade Glioma)) | combination Emax [10] | combination Emax [11] | combination Emax [12] | combination Emax [13] | combination Emax [14] | combination Emax (SF539 (Glioblastoma)) | combination Emax (IST-MES1 (Mesothelioma)) | combination Emax (LN-229 (Glioblastoma)) | combination Emax [15]
CC1(C)CCC(CN2CCN(c3ccc(C(=O)NS(=O)(=O)c4ccc(NCC5CCOCC5)c([N+](=O)[O-])c4)c(Oc4cnc5[nH]ccc5c4)c3)CC2)=C(c2ccc(Cl)cc2)C1 [Venetoclax] + C1CN(CCC1(C(=O)N[C@@H](CCO)C2=CC=C(C=C2)Cl)N)C3=NC=NC4=C3C=CN4 [Capivasertib] (first compound max 1 µM, 7x7, partner max 3 µM) | 0.285 | 0.177 | 0.626 | 0.185 | 0.561 | 0.102 | 0.172 | 0.557 | 0.204 | 0.424 | 0.273 | 0.925 | 0.695 | 0.882 | 0.512 | 1 | 0.551 | 0.123 | 0.086 | 0.644
CC1(C)CCC(CN2CCN(c3ccc(C(=O)NS(=O)(=O)c4ccc(NCC5CCOCC5)c([N+](=O)[O-])c4)c(Oc4cnc5[nH]ccc5c4)c3)CC2)=C(c2ccc(Cl)cc2)C1 [Venetoclax] + C=CCn1c(=O)c2cnc(Nc3ccc(N4CCN(C)CC4)cc3)nc2n1-c1cccc(C(C)(C)O)n1 [AZD1775] (first compound max 1 µM, partner max 1 µM) | 0.682 | 0.932 | 0.855 | 0.296 | 0.943 | 0.182 | 0.849 | 0.795 | 0.575 | 0.883 | 0.524 | 0.971 | 1 | 0.955 | 0.621 | 1 | 0.972 | 0.254 | 0.292 | 0.865
CC1(C)CCC(CN2CCN(c3ccc(C(=O)NS(=O)(=O)c4ccc(NCC5CCOCC5)c([N+](=O)[O-])c4)c(Oc4cnc5[nH]ccc5c4)c3)CC2)=C(c2ccc(Cl)cc2)C1 [Venetoclax] + CCN(CCO)CCCOc1ccc2c(Nc3cc(CC(=O)Nc4cccc(F)c4)[nH]n3)ncnc2c1 [AZD2811] (first compound max 1 µM, 7x7, partner max 1 µM) | 0.289 | 0.851 | 0.673 | 0.094 | 0.894 | 0.16 | 0.252 | 0.513 | 0.389 | 0.396 | 0.328 | 0.689 | 1 | 0.872 | 0.371 | 1 | 0.481 | 0.198 | 0.208 | 0.718
CC1(C)CCC(CN2CCN(c3ccc(C(=O)NS(=O)(=O)c4ccc(NCC5CCOCC5)c([N+](=O)[O-])c4)c(Oc4cnc5[nH]ccc5c4)c3)CC2)=C(c2ccc(Cl)cc2)C1 [Venetoclax] + CN(C)CCCOc1ccc(-c2ccc3ncc4c(c3c2)n(C2CCOCC2)c(=O)n4C)cn1 [AZD0156] (first compound max 1 µM, 7x7, partner max 1 µM) | 0.345 | 0.321 | 0.684 | 0.115 | 0.304 | 0.163 | 0.465 | 0.279 | 0.245 | 0.519 | 0.298 | 0.574 | 0.196 | 0.825 | 0.423 | 1 | 0.292 | 0.0799 | 0.212 | 0.705
CC1(C)CCC(CN2CCN(c3ccc(C(=O)NS(=O)(=O)c4ccc(NCC5CCOCC5)c([N+](=O)[O-])c4)c(Oc4cnc5[nH]ccc5c4)c3)CC2)=C(c2ccc(Cl)cc2)C1 [Venetoclax] + COc1cc(Nc2ncc3c(n2)-c2ccc(Cl)cc2C(c2c(F)cccc2OC)=NC3)ccc1C(=O)O [Alisertib] (first compound max 1 µM, 7x7, partner max 10 µM) | 0.522 | 0.848 | 0.56 | 0.478 | 0.909 | 0.165 | 0.51 | 0.498 | 0.643 | 0.673 | 0.419 | 0.828 | 0.955 | 0.882 | 0.734 | 1 | 0.454 | 0.489 | 0.2 | 0.678
CC1(C)CCC(CN2CCN(c3ccc(C(=O)NS(=O)(=O)c4ccc(NCC5CCOCC5)c([N+](=O)[O-])c4)c(Oc4cnc5[nH]ccc5c4)c3)CC2)=C(c2ccc(Cl)cc2)C1 [Venetoclax] + C[C@@H]1COCCN1C2=NC(=NC(=C2)C3(CC3)[S@](=N)(=O)C)C4=C5C=CNC5=NC=C4 [AZD6738] (first compound max 1 µM, 7x7, partner max 10 µM) | 0.537 | 0.494 | 0.781 | 0.424 | 0.924 | 0.41 | 0.83 | 0.739 | 0.554 | 0.793 | 0.64 | 0.943 | 1 | 0.929 | 0.423 | 1 | 0.87 | 0.396 | 0.582 | 0.847
CC1(C)CCC(CN2CCN(c3ccc(C(=O)NS(=O)(=O)c4ccc(NCC5CCOCC5)c([N+](=O)[O-])c4)c(Oc4cnc5[nH]ccc5c4)c3)CC2)=C(c2ccc(Cl)cc2)C1 [Venetoclax] + C[C@@H](Nc1cc(F)cc(F)c1)c1cc(C(=O)N(C)C)cc2c(=O)cc(N3CCOCC3)oc12 [AZD8186] (first compound max 1 µM, 7x7, partner max 3 µM) | 0.575 | 0.0674 | 0.592 | 0.168 | 0.581 | 0.0634 | 0.119 | 0.228 | 0.224 | 0.401 | 0.127 | 0.513 | 0.356 | 0.862 | 0.371 | 1 | 0.287 | 0.176 | 0.0902 | 0.665
CC1(C)CCC(CN2CCN(c3ccc(C(=O)NS(=O)(=O)c4ccc(NCC5CCOCC5)c([N+](=O)[O-])c4)c(Oc4cnc5[nH]ccc5c4)c3)CC2)=C(c2ccc(Cl)cc2)C1 [Venetoclax] + Cc1cc2ncnn2cc1Nc1ncc2c(n1)n(C1CCOCC1)c(=O)n2C [AZD7648] (first compound max 1 µM, 7x7, partner max 10 µM) | 0.374 | 0.266 | 0.584 | 0.135 | 0.403 | 0.167 | 0.366 | 0.374 | 0.163 | 0.401 | 0.268 | 0.642 | 0.404 | 0.856 | 0.319 | 1 | 0.341 | 0.195 | 0.115 | 0.621
CC1(C)CCC(CN2CCN(c3ccc(C(=O)NS(=O)(=O)c4ccc(NCC5CCOCC5)c([N+](=O)[O-])c4)c(Oc4cnc5[nH]ccc5c4)c3)CC2)=C(c2ccc(Cl)cc2)C1 [Venetoclax] + Cn1cnc2c(F)c(Nc3ccc(Br)cc3Cl)c(C(=O)NOCCO)cc21 [Selumetinib] (first compound max 1 µM, 7x7, partner max 3 µM) | 0.479 | 0.172 | 0.684 | 0.0816 | 0.198 | 0.0851 | 0.256 | 0.71 | 0.183 | 0.457 | 0.157 | 0.385 | 0.352 | 0.806 | 0.18 | 1 | 0.217 | 0.161 | 0.3 | 0.731
